Data: paper PMC8524854, “A novel dual-prodrug carried by cyclodextrin inclusion complex for the targeting treatment of colon cancer” (Journal of Nanobiotechnology, 2021)
Read-outs that look alike come from different tables or passages of the source. Marks after values point to notes of the source that are not given here.

Experiments:
VEGFR-3 = VEGFR-3 expression in tumor tissue; format: in vivo, nude mice; conditions: tumor tissue of SW620 xenografts
Procedure: (§1) 15 days post-administration, all nude mice were sacrificed. The tumor tissues were collected, stained with H&E, and observed under an inverted microscope (400 ×). In addition, the TUNEL test was performed to detect cell apoptosis. Meanwhile, the expressions of both VEGFR-3 and Ki-67 were detected by ELISA.

Kunming mice = format: in vivo; conditions: for Bodyweight End: end of 14 d observation; for Amount (start/end), survival: observed 14 d
Procedure: All animals were given a single oral gavage of 0.2 mL of different dosage forms, and their body weight was monitored every day. Meanwhile, the toxicity and mortality of all animals were observed every day. The conventional changes such as the cases of the diet, urine, and feces were recorded. On the 15th day after treatment, the blood of each group was collected from the heart and centrifuged at 1,000 × g for 10 min to collect serum. An automated biochemical analyzer was used to detect serum alanine aminotransferase (ALT), aspartate aminotransferase (AST), blood urea nitrogen (BUN), and creatinine (Cr). Meanwhile, the heart, liver, lung, and kidney were quickly excised, washed with normal saline, and weighed. The visceral index is estimated according to the following formula as Viscera Index (%) = Viscera Weight / Body Weight × 100. And then, all the tissues were fixed with 10% formalin and stained with hematoxylin & eosin (H&E) for pathological analysis.

SW620 xenografts [1] = assay: H&E pathological analysis of tumor tissue (necrosis rate); format: in vivo, nude mice; conditions: 15 days post-administration
Procedure: as §1

SW620 xenografts [2] = assay: Pharmacodynamic evaluation, tumor growth inhibition; format: in vivo, BALB/C nude mice; conditions: every two days for 7 times, tumor weight on day 25 post-implantation
Procedure: Ten days after tumor transplantation, the SW620 tumor-bearing mice were randomly divided into 8 groups with 5 mice in each group when the tumors reached about 100 mm^3. The animals were weighed before treatment, and the measurement was continued every 2 days. The two axes of the tumor were measured with a vernier micrometer (L, longest axis; W, shortest axis). Tumor volume (mm^3) was calculated as ½ (L × W^2). Anti-tumor activity was evaluated by tumor growth inhibition (TGI), which was the mean tumor weight (MTW) of the treated group (TG) relative to the saline-treated control group (CG) on day 15, as calculated according to the formula [47]. […].

SW620 xenografts [3] = assay: TUNEL test of tumor tissue (apoptosis rate); format: in vivo, nude mice; conditions: 15 days post-administration
Procedure: as §1

SW620 cells [4] = assay: Cell apoptosis, Annexin V/PI flow cytometry; format: cell-based, human; conditions: 30 μM, 48 h
Procedure: For the cell apoptosis detection, the cells in the different groups were washed three times with PBS and incubated with Annexin V-FITC solution for 10 min. Then, flow cytometry analysis was performed to detect the FITC and PI fluorescent intensity and report the percentage of the cell population within each plot quadrant.

[5] = In vitro release of BBA by dialysis method; format: physicochemical; conditions: during the first 24 h, PBS with 0.5% Tween 80, pH 7.4, 37 °C
Procedure: Release of BBA from BBA/CM-β-CD and BBA/FA-PEG-CM-β-CD was investigated in vitro using the dialysis method. […] At different time points (0.25, 0.5, 1, 2, 3, 4, 6, 8, 12, 48, 72 and 96 h), 1.0 mL of release medium was removed and replaced with fresh medium.

CaCo-2 cells = assay: MTT cell-growth inhibition; format: cell-based, human; conditions: 24 h, 48 h, 72 h, 5-FU at 20 μg/mL
Procedure: (§2) CaCo-2 and SW620 cells were used as model cells to evaluate the anticancer effects in vitro. Single-cell suspension was prepared with DMEM containing 10% Gibco FBS and 1% penicillin–streptomycin. The cells were seeded in a 96-well plate (3500 cells/well) and incubated respectively for 24 h, 48 h, and 72 h at 37 °C with 5% CO2. […] The medium was removed, and cells were washed three times with PBS before incubation with MTT for 4 h at 37 °C. After the medium was removed, 100 μL of DMSO was added to the well for 10 min. The absorbance of the solution was measured at 570 nm by Multimode Reader (Bio Tek Synergy H1).

SW620 cells [6] = assay: MTT cell-growth inhibition; format: cell-based, human; conditions: 24 h, 48 h, 72 h, 5-FU at 20 μg/mL
Procedure: as §2

SW620 cells [7] = assay: Cell cycle analysis, propidium iodide flow cytometry; format: cell-based, human; conditions: 48 h
Procedure: For the cell cycle analysis, the cells in the different groups were washed three times with PBS and incubated with 1 mL of pre-cooled 70% alcohol at 4 °C for 24 h. After the cells were fixed, centrifuged at 300 × g for 5 min to collect the cells. 1 mL of cold PBS was added to re-suspend the cells and centrifuged at 300 × g for 5 min to remove the supernatant. 10 μL of RNaseA (50 ×) and 25 μL of propidium iodide (20 ×) in 0.5 mL of buffer were added. Finally, flow cytometry was used for cell cycle detection.

[8] = Pharmacokinetics: butyric acid in plasma after gavage; format: in vivo, SW620 tumor-bearing BALB/C nude mice; conditions: gavage 0.366 g/kg
Procedure: SW620 tumor-bearing mice were randomly divided into 3 groups (n = 5). […] The blood was collected respectively from the heart at 0.25, 0.5, 1, 2, 3, 4, 6, 8, 12, 24, 36, 48, and 72 h after administration. The whole blood was quickly centrifuged at 2000 × g for 5 min, and the upper plasma was precisely aspirated. Then 0.35 mL of methanol was added, vortexed for 2 min, and centrifuged at 3350 × g for 15 min. The supernatant was used to detect butyric acid by HPLC [45]. The pharmacokinetic parameters were calculated by non-compartmental analysis using Drug Analysis System (DAS 2.1.1, Shanghai, China).

[9] = Solubility observed during carrier synthesis; format: physicochemical; conditions: water
Ki-67 = Ki-67 expression in tumor tissue; format: in vivo, nude mice; conditions: tumor tissue of SW620 xenografts
Procedure: as §1

[10] = Kunming mice, before single oral gavage
[11] = Kunming mice, single oral gavage
[12] = serum, Kunming mice, 15th day after single oral gavage

## CCCC(=O)[O-].[Na+] [NaB, sodium butyrate]
VEGFR-3
  VEGFR-3 positive area: significantly reduced
Kunming mice; [10]
  Bodyweight Start: 18.24 ± 0.53 g
Kunming mice; [11]
  Bodyweight End: 19.14 ± 0.52 g
  Amount (start/end), survival: 5/5
Kunming mice; Kunming mice, single oral gavage, start to end
  Average weight change rate: 4.93%
Kunming mice; [12]
  ALT: 17.37 ± 1.77 U/L
  AST: 58.17 ± 4.75 U/L
  BUN: 8.60 ± 0.98 mmol/L
SW620 xenografts [1]
  average necrosis rate: 10%
SW620 xenografts [2]
  mean tumor inhibitory rate: 15.30% ± 5.61%
SW620 xenografts [3]
  apoptosis rate (TUNEL): 1.45%

## Nc1ccc(O)c(C(=O)O)c1 [5-ASA, 5-aminosalicylic acid]
VEGFR-3
  VEGFR-3 positive area: significantly reduced
Kunming mice; [11]
  Amount (start/end), survival: 5/5
Kunming mice; mouse, in vivo, po
  ALT: 23.20 ± 2.87 U/L
  Average weight change rate: 4.63%
  Bodyweight Start: 18.58 ± 0.41 g
  Cr: 9.55 ± 0.36 µmol/L
SW620 xenografts [1]
  average necrosis rate: 15%
SW620 xenografts [2]
  mean tumor inhibitory rate: 31.33% ± 7.17%
SW620 xenografts [3]
  apoptosis rate (TUNEL): 2.44%

## 2-butyryl oxy-5-butylaminyl benzoic acid [BBA]
SW620 cells [4]
  apoptotic rate including early apoptosis and late apoptosis: 32.21% ± 8.26%
VEGFR-3
  VEGFR-3 positive area: significantly reduced
[5]
  in vitro accumulative release of BBA: 90%
Kunming mice; [10]
  Bodyweight Start: 18.48 ± 0.63 g
Kunming mice; [11]
  Bodyweight End: 18.16 ± 0.63 g
  Amount (start/end), survival: 5/5
Kunming mice; [12]
  ALT: 18.53 ± 0.65 U/L
  AST: 57.27 ± 10.20 U/L
  BUN: 6.32 ± 0.97 mmol/L
  Cr: 8.63 ± 1.96 µmol/L
CaCo-2 cells
  cell-proliferation inhibition effect: some cell-proliferation inhibition effect
SW620 cells [6]
  cell-proliferation inhibition effect: some cell-proliferation inhibition effect
SW620 xenografts [1]
  average necrosis rate: 20%
SW620 cells [7]
  cell cycle arrest: mainly arrested at the G0/G1 phase
[8]
  AUC0-t: 219.263 ± 5.360 µg·h/mL
  CL: 0.21267 ± 0.00447 mL/min/kg
  Cmax: 35923 ± 826 ng/mL
  MRT0-t: 4.769 ± 0.115 h
SW620 xenografts [2]
  mean tumor inhibitory rate: 41.76% ± 7.56%
SW620 xenografts [3]
  apoptosis rate (TUNEL): 3.27%

## Nc1nc2ncc(CNc3ccc(C(=O)N[C@@H](CCC(=O)O)C(=O)O)cc3)nc2c(=O)[nH]1 [FA, Folic acid]
[9]
  solubility: too poor

## O=c1[nH]cc(F)c(=O)[nH]1 [5-FU, 5-fluorouracil]
VEGFR-3
  VEGFR-3 positive area: significantly reduced
Ki-67
  Ki-67 positive expression: significant decrease of the positive expression
Kunming mice; [11]
  Amount (start/end), survival: 5/5
Kunming mice; mouse, in vivo
  serum biochemical analysis indexes: AST and ALT increased significantly
Kunming mice; mouse, in vivo, po
  ALT: 292.50 ± 6.60 U/L
  AST: 254.00 ± 53.4 U/L
  Average weight change rate: − 4.46* %
  BUN: 6.92 ± 1.20 mmol/L
  Bodyweight Start: 18.82 ± 0.61 g
  Cr: 7.45 ± 2.91 µmol/L
  Heart index: 0.81 ± 0.28%
  Lung index: 0.85 ± 0.11%
  decrease of average body weight: 4.46%
CaCo-2 cells
  cell-proliferation inhibition effect: drastically enhanced the cell proliferation inhibition rate compared with the BBA group
SW620 cells [6]
  cell-proliferation inhibition effect: drastically enhanced the cell proliferation inhibition rate compared with the BBA group
SW620 xenografts [1]
  average necrosis rate: 50%
SW620 xenografts [2]
  mean tumor inhibitory rate: 85.85% ± 2.89%
SW620 xenografts [3]
  apoptosis rate (TUNEL): 8.87%
